Laboratory results from publication PMC6993756, “Novel Anticancer Fused Pyrazole Derivatives as EGFR and VEGFR-2 Dual TK Inhibitors” (Frontiers in Chemistry, 2020).
Read-outs that look alike come from different tables or passages of the source.

Columns and labels:
[1] = molecular target: EGFR (Homo sapiens, UniProt P00533); experiment: EGFR kinase inhibitory assay (BPS Bioscience EGFR kinase assay kit)
[2] = molecular target: VEGFR-2 (Homo sapiens, UniProt P35968); experiment: VEGFR-2 kinase inhibitory assay (HTScan VEGF Receptor 2 kinase assay kit)
Sequence of VEGFR-2 (P35968 20-1356): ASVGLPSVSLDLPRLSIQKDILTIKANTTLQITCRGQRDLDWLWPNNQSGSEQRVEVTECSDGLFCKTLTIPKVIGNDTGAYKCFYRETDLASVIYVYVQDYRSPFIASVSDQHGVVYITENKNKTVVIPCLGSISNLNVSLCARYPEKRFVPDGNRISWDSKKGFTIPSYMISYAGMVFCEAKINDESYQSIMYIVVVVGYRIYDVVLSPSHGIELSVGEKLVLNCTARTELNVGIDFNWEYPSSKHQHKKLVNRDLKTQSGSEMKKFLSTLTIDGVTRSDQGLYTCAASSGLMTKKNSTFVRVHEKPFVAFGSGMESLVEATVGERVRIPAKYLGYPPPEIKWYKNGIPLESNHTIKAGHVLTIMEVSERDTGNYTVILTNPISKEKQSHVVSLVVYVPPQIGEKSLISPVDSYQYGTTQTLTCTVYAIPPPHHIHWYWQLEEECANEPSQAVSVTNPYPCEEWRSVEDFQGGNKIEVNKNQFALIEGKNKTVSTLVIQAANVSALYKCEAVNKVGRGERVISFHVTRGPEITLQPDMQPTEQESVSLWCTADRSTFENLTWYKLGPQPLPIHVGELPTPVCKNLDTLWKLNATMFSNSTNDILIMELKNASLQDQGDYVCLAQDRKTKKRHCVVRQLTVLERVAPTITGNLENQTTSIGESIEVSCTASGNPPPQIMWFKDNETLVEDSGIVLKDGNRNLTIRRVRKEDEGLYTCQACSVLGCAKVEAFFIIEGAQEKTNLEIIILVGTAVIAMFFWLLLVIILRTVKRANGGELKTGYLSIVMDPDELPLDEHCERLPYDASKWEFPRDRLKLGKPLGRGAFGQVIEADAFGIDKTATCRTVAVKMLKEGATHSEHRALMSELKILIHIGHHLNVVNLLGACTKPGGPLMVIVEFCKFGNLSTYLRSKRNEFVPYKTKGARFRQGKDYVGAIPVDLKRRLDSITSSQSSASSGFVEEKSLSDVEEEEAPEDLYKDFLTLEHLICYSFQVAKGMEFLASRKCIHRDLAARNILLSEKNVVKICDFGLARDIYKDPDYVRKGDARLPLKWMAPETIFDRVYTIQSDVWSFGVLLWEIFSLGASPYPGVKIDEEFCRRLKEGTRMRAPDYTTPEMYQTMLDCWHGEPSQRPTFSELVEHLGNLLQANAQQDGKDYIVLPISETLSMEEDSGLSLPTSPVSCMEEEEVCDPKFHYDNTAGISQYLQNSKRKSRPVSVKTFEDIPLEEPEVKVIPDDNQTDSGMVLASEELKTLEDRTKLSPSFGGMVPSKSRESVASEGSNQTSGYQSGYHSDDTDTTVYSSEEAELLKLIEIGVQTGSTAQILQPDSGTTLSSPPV

[3] = tested on: HEPG2 human cancer cell line; experiment: MTT in vitro anticancer activity against HEPG2 cell line; format: cell-based; conditions: for IC50: Homo sapiens, read-out: IC50 HEPG2; for fold higher activity than erlotinib, HEPG2: versus erlotinib (10.6 μM)
Description: The MTT method of monitoring in vitro cytotoxicity was used with multiwell plates. The stock concentration of the entire synthesized compounds in DMSO was 10 mM, and this was used to prepare the working dilution. The final DMSO concentration used in the experiments was ≤ 0.5% as the working concentration. Human liver cancer cell lines (HepG2) were cultured according to the manufacturer's instructions. […] The cell viability was determined in each experiment using MTT (3-(4, 5-dimethylthiazol-2-yl)-2, 5-diphenyltetrazolium bromide) colorimetric assay. The optical density was measured with a microplate reader at 540 nm. The experiment was conducted in triplicate. Data were calculated as percent of cell viability.

[4] = HepG2, MTT, 24 h treatment, mean of three experiments

Sequence of EGFR (P00533 25-1210): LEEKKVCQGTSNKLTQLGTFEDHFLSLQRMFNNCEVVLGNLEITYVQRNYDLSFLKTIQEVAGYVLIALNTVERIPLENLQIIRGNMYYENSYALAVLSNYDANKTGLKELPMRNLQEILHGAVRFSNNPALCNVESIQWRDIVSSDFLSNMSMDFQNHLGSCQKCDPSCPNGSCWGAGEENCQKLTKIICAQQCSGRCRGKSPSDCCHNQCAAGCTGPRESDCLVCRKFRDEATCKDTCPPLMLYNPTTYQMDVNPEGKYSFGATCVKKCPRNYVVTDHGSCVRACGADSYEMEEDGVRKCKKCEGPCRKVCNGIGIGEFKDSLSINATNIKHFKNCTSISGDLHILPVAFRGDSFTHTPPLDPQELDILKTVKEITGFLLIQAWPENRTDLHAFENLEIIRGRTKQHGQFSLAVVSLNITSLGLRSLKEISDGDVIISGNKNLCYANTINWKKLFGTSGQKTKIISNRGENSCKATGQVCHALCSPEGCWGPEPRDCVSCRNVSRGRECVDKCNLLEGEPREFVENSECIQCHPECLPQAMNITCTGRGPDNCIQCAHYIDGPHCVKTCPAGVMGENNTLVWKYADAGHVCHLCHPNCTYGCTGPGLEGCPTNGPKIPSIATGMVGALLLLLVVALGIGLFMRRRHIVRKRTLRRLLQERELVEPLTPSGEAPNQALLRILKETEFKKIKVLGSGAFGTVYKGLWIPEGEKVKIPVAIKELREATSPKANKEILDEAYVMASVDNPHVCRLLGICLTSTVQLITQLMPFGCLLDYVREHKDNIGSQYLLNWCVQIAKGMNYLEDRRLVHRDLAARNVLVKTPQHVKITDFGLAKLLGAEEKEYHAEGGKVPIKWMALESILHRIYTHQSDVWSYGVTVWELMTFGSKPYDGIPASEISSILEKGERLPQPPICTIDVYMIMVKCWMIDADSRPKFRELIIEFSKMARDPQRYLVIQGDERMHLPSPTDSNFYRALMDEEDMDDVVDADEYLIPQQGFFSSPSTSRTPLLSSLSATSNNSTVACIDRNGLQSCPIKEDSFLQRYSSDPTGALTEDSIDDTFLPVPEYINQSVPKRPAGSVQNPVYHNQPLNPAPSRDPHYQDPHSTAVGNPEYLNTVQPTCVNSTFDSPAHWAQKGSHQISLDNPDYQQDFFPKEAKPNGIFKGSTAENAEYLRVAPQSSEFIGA

| SMILES | IC50 [1] [µM] | IC50 [2] [µM] | IC50 [3, 4] [µM] | melting point [°C] | fold higher activity than erlotinib, HEPG2 [3] [fold] | IC50 ([3]; HepG2, 24 h) [µM] |
| --- | --- | --- | --- | --- | --- | --- |
| Cc1n[nH]c2c1C(c1ccccc1Br)C(C#N)=C(NC(=S)Nc1ccccc1)O2 (centres unmarked) [Compound 8, 1-(4-(2-Bromophenyl)-5-cyano-3-methyl-1,4-dihydropyrano[2,3-c]pyrazol-6-yl)-3-phenylthiourea] | 0.23 | 0.46 | 0.38 | – | – | – |
| Cc1n[nH]c2c1C(c1ccccc1Br)C(C#N)=C(NC(=O)CC#N)O2 (centres unmarked) [Compound 7, N-(4-(2-Bromophenyl)-5-cyano-3-methyl-1,4-dihydropyrano[2,3-c]pyrazol-6-yl)-2-cyanoacetamide] | 0.25 | 1.45 | 1.84 | > 360 | – | – |
| CC1=NNC2=NC(=S)NC(c3ccccc3Br)C12 (centres unmarked) [Compound 13, 4-(2-Bromophenyl)-3-methyl-1,3a,4,5-tetrahydro-6H-pyrazolo[3,4-d]pyrimidine-6-thione] | 0.12 | 0.75 | 1.81 | 170 | – | – |
| CC1=NNC2=NC(=O)NC(c3ccccc3Br)C12 (centres unmarked) [Compound 12, 4-(2-bromophenyl)-3-methyl-1,3a, 4,5-tetrahydro-6h-pyrazolo [3,4-d]pyrimidin-6-one] | 0.09 | 0.23 | 0.71 | 205 | ~10 | – |
| CCOC=NC1=C(C#N)C(c2ccccc2Br)c2c(C)n[nH]c2O1 (centres unmarked) [Compound 2, Ethyl(E)-N-(4-(2-bromophenyl)-5-cyano-3-methyl-1,4-dihydropyrano[2,3-cpyrazol-6-yl)formimidate] | 0.49 | 2.12 | 0.35 | 158 to 160 | ~10 | – |
| Cc1n[nH]c2c1C(c1ccccc1Br)c1c(N)ncnc1O2 (centres unmarked) [Compound 6, 4-(2-Bromophenyl)-3-methyl-1,4-dihydropyrazolo[4′,3′:5,6]pyrano[2,3-d]pyrimidin-5-amine] | 0.25 | 1.1 | 15.7 | 320 | – | – |
| Cc1ccc(S(=O)(=O)NC2=C(C#N)C(c3ccccc3Br)c3c(C)n[nH]c3O2)cc1 (centres unmarked) [Compound 9, N-(4-(2-Bromophenyl)-5-cyano-3-methyl-1,4-dihydropyrano[2,3-c]pyrazol-6-yl)-4-methyl-benzenesulfonamide] | 0.16 | 0.22 | 2.3 | 193 to 195 | – | – |
| Cc1n[nH]c2oc(=O)c(C#N)c(-c3ccccc3Br)c12 [Compound 15, 4-(2-Bromophenyl)-3-methyl-6-oxo-1,6-dihydropyrano[2,3-c]pyrazole-5-carbonitrile] | 0.19 | 0.37 | 0.37 | > 360 | ~10 | – |
| Cc1nc2c(c(=O)[nH]1)C(c1ccccc1Br)c1c(C)n[nH]c1O2 (centres unmarked) [Compound 4, 4-(2-Bromophenyl)-3,7-dimethyl-4,6-dihydropyrazolo[4′,3′:5,6]pyrano[2,3-d]pyrimidin-5(1H)-one] | 0.13 | 0.36 | 0.31 | 115 | ~10 | – |
| CC1=NNC(=O)/C1=C/c1ccccc1Br [Compound 11, (E)-4-(2-Bromobenzylidene)-5-methyl-2,4-dihydro-3H-pyrazol-3-one] | 0.3 | 0.27 | 0.63 | 210 | ~10 | – |
| CC1=NNC2=NNC(c3ccccc3Br)C12 (centres unmarked) [Compound 14, 4-(2-Bromophenyl)-3-methyl-1,3a,4,5-tetrahydropyrazolo[3,4-c]pyrazole] | 0.11 | 2.87 | 6.64 | 140 | – | – |
| C#Cc1cccc(Nc2ncnc3cc(OCCOC)c(OCCOC)cc23)c1 [Erlotinib, erlotinib, reference compound] | – | – | – | – | – | 10.6 |
| Cc1n[nH]c2c1C(c1ccccc1Br)c1c(nc[nH]c1=O)O2 (centres unmarked) [Compound 5, 4-(2-Bromophenyl)-3-methyl-4,6-dihydropyrazolo [4′,3′:5,6]pyrano[2,3-d]pyrimidin-5(1H)-one] | 0.15 | 1.12 | 8.71 | 205 | – | – |
| Cc1n[nH]c2c1C(c1ccccc1Br)C(C#N)=C(N)O2 (centres unmarked) [Compound 1, 6-amino-4-(2-bromophenyl)-3-methyl-1,4-dihydropyrano[2,3-c]pyrazole-5-carbonitrile] | 0.14 | 11.4 | 0.42 | – | ~10 | – |
| CNC(=O)c1cc(Oc2ccc(NC(=O)Nc3ccc(Cl)c(C(F)(F)F)c3)cc2)ccn1 [Sorafenib, sorafenib, reference compound] | – | – | 1.06 | – | – | – |
| Cc1n[nH]c2c1C(c1ccccc1Br)c1c(ncn(N)c1=N)O2 (centres unmarked) [Compound 3, 4-(2-Bromophenyl)-5-imino-3-methyl-1,4-dihydropyrazolo[4′,3′:5,6]pyrano[2,3-d]pyrimidin-6(5H)-amine] | 0.06 | 0.85 | 4.07 | 120 to 122 | – | – |
